Measurements reported in the NIST ThermoML archive (doi:10.1016/j.jct.2015.03.021).
± gives the expanded uncertainty stated by the source.

Key:
[1] = 101.33 kPa, Liquid, Vibrating tube method
[2] = relative permittivity at various frequencies (dimensionless); conditions: 100 kPa, Liquid, Frequency=1 MHz, Parallel plate capacitor
[3] = excess molar enthalpy (molar enthalpy of mixing); xn = mol fraction of the nth substance listed; conditions: 100 kPa, Liquid, Calvet calorimetry

CCC(C)CO (stereo not given) [2-methyl-1-butanol]
Conditions | mass density, [1] [kg/m3] | relative permittivity, [2]
298.15 K | 814.98 ± 0.31 | 15.52 ± 0.23
308.15 K | 807.63 ± 0.31 | 14.07 ± 0.23

CCC(C)CO (stereo not given) [2-methyl-1-butanol] + CCCCOCCCC
[3]
Conditions | excess molar enthalpy [kcal/mol]
298.15 K, x2 = 0.0954 | 0.0664 ± 0.00143
298.15 K, x2 = 0.162 | 0.113 ± 0.00239
298.15 K, x2 = 0.2536 | 0.165 ± 0.00359
298.15 K, x2 = 0.3156 | 0.193 ± 0.00406
298.15 K, x2 = 0.4007 | 0.221 ± 0.00478
298.15 K, x2 = 0.4806 | 0.241 ± 0.00526
298.15 K, x2 = 0.5445 | 0.246 ± 0.00526
298.15 K, x2 = 0.6338 | 0.248 ± 0.00526
298.15 K, x2 = 0.7017 | 0.237 ± 0.00502
298.15 K, x2 = 0.7832 | 0.211 ± 0.00454
298.15 K, x2 = 0.8542 | 0.176 ± 0.00382
298.15 K, x2 = 0.9335 | 0.101 ± 0.00215
308.15 K, x2 = 0.0798 | 0.0595 ± 0.00143
308.15 K, x2 = 0.152 | 0.111 ± 0.00239
308.15 K, x2 = 0.2539 | 0.168 ± 0.00359
308.15 K, x2 = 0.3152 | 0.198 ± 0.0043
308.15 K, x2 = 0.4069 | 0.224 ± 0.00478
308.15 K, x2 = 0.4701 | 0.242 ± 0.00526
308.15 K, x2 = 0.5703 | 0.251 ± 0.0055
308.15 K, x2 = 0.6528 | 0.249 ± 0.00526
308.15 K, x2 = 0.7263 | 0.235 ± 0.00502
308.15 K, x2 = 0.8093 | 0.202 ± 0.0043
308.15 K, x2 = 0.897 | 0.147 ± 0.00311
308.15 K, x2 = 0.9553 | 0.07 ± 0.00167

CCC(C)(C)O [2-methylbutan-2-ol]
Conditions | mass density, [1] [kg/m3] | relative permittivity, [2]
298.15 K | 804.31 ± 0.82 | 5.63 ± 0.07
308.15 K | 795.16 ± 0.8 | 5.23 ± 0.07

CCC(C)(C)O [2-methylbutan-2-ol] + CCCCOCCCC
excess molar enthalpy [kcal/mol], [3]
Conditions | 298.15 K | 308.15 K
x2 = 0.0916 | 0.0557 ± 0.0012 | –
x2 = 0.0919 | – | 0.065 ± 0.00143
x2 = 0.1591 | 0.098 ± 0.00215 | –
x2 = 0.1603 | – | 0.108 ± 0.00239
x2 = 0.2403 | 0.141 ± 0.00311 | 0.155 ± 0.00335
x2 = 0.3201 | 0.18 ± 0.00382 | –
x2 = 0.3244 | – | 0.188 ± 0.00406
x2 = 0.3985 | 0.21 ± 0.00454 | –
x2 = 0.4034 | – | 0.217 ± 0.00454
x2 = 0.4755 | 0.234 ± 0.00502 | –
x2 = 0.476 | – | 0.244 ± 0.00526
x2 = 0.5445 | 0.249 ± 0.00526 | –
x2 = 0.5541 | – | 0.262 ± 0.00574
x2 = 0.6392 | 0.258 ± 0.0055 | –
x2 = 0.6992 | 0.255 ± 0.0055 | –
x2 = 0.702 | – | 0.272 ± 0.00574
x2 = 0.7733 | 0.237 ± 0.00502 | –
x2 = 0.7747 | – | 0.258 ± 0.0055
x2 = 0.8569 | 0.199 ± 0.0043 | –
x2 = 0.8671 | – | 0.204 ± 0.0043
x2 = 0.9322 | – | 0.129 ± 0.00287
x2 = 0.933 | 0.123 ± 0.00263 | –

CC(C)C(C)O (stereo not given) [3-methyl-2-butanol]
Conditions | mass density, [1] [kg/m3] | relative permittivity, [2]
298.15 K | 813.09 ± 0.83 | 11.98 ± 0.19
308.15 K | 804.35 ± 0.82 | 10.78 ± 0.19

CC(C)C(C)O (stereo not given) [3-methyl-2-butanol] + CCCCOCCCC
[3]
Conditions | excess molar enthalpy [kcal/mol]
298.15 K, x2 = 0.0959 | 0.0882 ± 0.00191
298.15 K, x2 = 0.1639 | 0.144 ± 0.00311
298.15 K, x2 = 0.2508 | 0.204 ± 0.0043
298.15 K, x2 = 0.3274 | 0.241 ± 0.00526
298.15 K, x2 = 0.3977 | 0.263 ± 0.00574
298.15 K, x2 = 0.4693 | 0.279 ± 0.00598
298.15 K, x2 = 0.552 | 0.289 ± 0.00621
298.15 K, x2 = 0.6335 | 0.287 ± 0.00621
298.15 K, x2 = 0.7081 | 0.273 ± 0.00574
298.15 K, x2 = 0.7757 | 0.248 ± 0.00526
298.15 K, x2 = 0.8645 | 0.194 ± 0.00406
298.15 K, x2 = 0.9394 | 0.106 ± 0.00239
308.15 K, x2 = 0.0813 | 0.0648 ± 0.00143
308.15 K, x2 = 0.155 | 0.118 ± 0.00263
308.15 K, x2 = 0.2572 | 0.181 ± 0.00382
308.15 K, x2 = 0.3229 | 0.233 ± 0.00502
308.15 K, x2 = 0.4119 | 0.263 ± 0.00574
308.15 K, x2 = 0.4817 | 0.281 ± 0.00598
308.15 K, x2 = 0.5473 | 0.288 ± 0.00621
308.15 K, x2 = 0.6348 | 0.287 ± 0.00621
308.15 K, x2 = 0.7226 | 0.269 ± 0.00574
308.15 K, x2 = 0.8083 | 0.235 ± 0.00502
308.15 K, x2 = 0.8908 | 0.168 ± 0.00359
308.15 K, x2 = 0.9786 | 0.0538 ± 0.0012

CC(C)CCO [3-methylbutan-1-ol]
Conditions | mass density, [1] [kg/m3] | relative permittivity, [2]
298.15 K | 804.24 ± 0.31 | 15.09 ± 0.22
308.15 K | 796.95 ± 0.31 | 13.73 ± 0.22

CC(C)CCO [3-methylbutan-1-ol] + CCCCOCCCC
[3]
Conditions | excess molar enthalpy [kcal/mol]
298.15 K, x2 = 0.092 | 0.0552 ± 0.0012
298.15 K, x2 = 0.1608 | 0.0932 ± 0.00215
298.15 K, x2 = 0.2389 | 0.132 ± 0.00287
298.15 K, x2 = 0.3161 | 0.16 ± 0.00335
298.15 K, x2 = 0.3993 | 0.187 ± 0.00406
298.15 K, x2 = 0.4694 | 0.204 ± 0.0043
298.15 K, x2 = 0.5458 | 0.216 ± 0.00454
298.15 K, x2 = 0.6389 | 0.221 ± 0.00478
298.15 K, x2 = 0.7088 | 0.211 ± 0.00454
298.15 K, x2 = 0.776 | 0.194 ± 0.00406
298.15 K, x2 = 0.8626 | 0.154 ± 0.00335
298.15 K, x2 = 0.9423 | 0.0837 ± 0.00191
308.15 K, x2 = 0.0836 | 0.054 ± 0.0012
308.15 K, x2 = 0.1547 | 0.0951 ± 0.00215
308.15 K, x2 = 0.2348 | 0.138 ± 0.00287
308.15 K, x2 = 0.3248 | 0.176 ± 0.00382
308.15 K, x2 = 0.4249 | 0.202 ± 0.0043
308.15 K, x2 = 0.4894 | 0.22 ± 0.00478
308.15 K, x2 = 0.5775 | 0.228 ± 0.00478
308.15 K, x2 = 0.6519 | 0.226 ± 0.00478
308.15 K, x2 = 0.7302 | 0.214 ± 0.00454
308.15 K, x2 = 0.787 | 0.194 ± 0.00406
308.15 K, x2 = 0.8553 | 0.161 ± 0.00359
308.15 K, x2 = 0.9681 | 0.0564 ± 0.0012

CCC(O)CC [3-pentanol]
Conditions | mass density, [1] [kg/m3] | relative permittivity, [2]
298.15 K | 815.62 ± 0.83 | 13.21 ± 0.29
308.15 K | 806.9 ± 0.82 | 11.39 ± 0.29

CCC(O)CC [3-pentanol] + CCCCOCCCC
[3]
Conditions | excess molar enthalpy [kcal/mol]
298.15 K, x2 = 0.0979 | 0.0951 ± 0.00215
298.15 K, x2 = 0.1702 | 0.159 ± 0.00335
298.15 K, x2 = 0.2558 | 0.219 ± 0.00478
298.15 K, x2 = 0.3242 | 0.257 ± 0.0055
298.15 K, x2 = 0.4033 | 0.283 ± 0.00598
298.15 K, x2 = 0.4684 | 0.302 ± 0.00645
298.15 K, x2 = 0.5438 | 0.314 ± 0.00669
298.15 K, x2 = 0.6374 | 0.311 ± 0.00669
298.15 K, x2 = 0.7023 | 0.3 ± 0.00645
298.15 K, x2 = 0.7739 | 0.269 ± 0.00574
298.15 K, x2 = 0.8554 | 0.214 ± 0.00454
298.15 K, x2 = 0.9278 | 0.129 ± 0.00287
308.15 K, x2 = 0.0991 | 0.0968 ± 0.00215
308.15 K, x2 = 0.1692 | 0.157 ± 0.00335
308.15 K, x2 = 0.235 | 0.202 ± 0.0043
308.15 K, x2 = 0.3202 | 0.25 ± 0.00526
308.15 K, x2 = 0.3985 | 0.276 ± 0.00598
308.15 K, x2 = 0.5414 | 0.306 ± 0.00645
308.15 K, x2 = 0.6464 | 0.306 ± 0.00645
308.15 K, x2 = 0.7326 | 0.29 ± 0.00621
308.15 K, x2 = 0.811 | 0.246 ± 0.00526
308.15 K, x2 = 0.8986 | 0.182 ± 0.00382
308.15 K, x2 = 0.9603 | 0.0817 ± 0.00191

CCCCCO [pentan-1-ol]
Conditions | mass density, [1] [kg/m3] | relative permittivity, [2]
298.15 K | 810.89 ± 0.31 | 15 ± 0.24
308.15 K | 803.7 ± 0.31 | 13.51 ± 0.24

CCCC(C)O (stereo not given) [pentan-2-ol]
Conditions | mass density, [1] [kg/m3] | relative permittivity, [2]
298.15 K | 806.11 ± 0.82 | 13.54 ± 0.23
308.15 K | 798 ± 0.81 | 12.08 ± 0.23

CCCC(C)O (stereo not given) [pentan-2-ol] + CCCCOCCCC
[3]
Conditions | excess molar enthalpy [kcal/mol]
298.15 K, x2 = 0.0974 | 0.0839 ± 0.00191
298.15 K, x2 = 0.1685 | 0.136 ± 0.00287
298.15 K, x2 = 0.2474 | 0.185 ± 0.00406
298.15 K, x2 = 0.3335 | 0.225 ± 0.00478
298.15 K, x2 = 0.397 | 0.243 ± 0.00526
298.15 K, x2 = 0.5096 | 0.268 ± 0.00574
298.15 K, x2 = 0.549 | 0.27 ± 0.00574
298.15 K, x2 = 0.6386 | 0.268 ± 0.00574
298.15 K, x2 = 0.705 | 0.255 ± 0.0055
298.15 K, x2 = 0.7803 | 0.232 ± 0.00502
298.15 K, x2 = 0.8623 | 0.193 ± 0.00406
298.15 K, x2 = 0.9322 | 0.118 ± 0.00263
308.15 K, x2 = 0.0841 | 0.0758 ± 0.00167
308.15 K, x2 = 0.1634 | 0.138 ± 0.00311
308.15 K, x2 = 0.2305 | 0.182 ± 0.00382
308.15 K, x2 = 0.3156 | 0.225 ± 0.00478
308.15 K, x2 = 0.4161 | 0.264 ± 0.00574
308.15 K, x2 = 0.4834 | 0.284 ± 0.00598
308.15 K, x2 = 0.5759 | 0.288 ± 0.00621
308.15 K, x2 = 0.6314 | 0.286 ± 0.00621
308.15 K, x2 = 0.7299 | 0.265 ± 0.00574
308.15 K, x2 = 0.8144 | 0.234 ± 0.00502
308.15 K, x2 = 0.908 | 0.161 ± 0.00359
308.15 K, x2 = 0.964 | 0.0746 ± 0.00167
